Test results reported in patent US20080319000A1, “Use of 3,1IB-Cis-Dihydrotetrabenazine for the Treatment of Symptoms of Huntingtons Disease” (CAMBRIDGE LABORATORIES (IRELAND) LIMITED, priority 2005, published 2008).

Experiments:
[1] = tested on: Male Sprague-Dawley rats; assay: Spontaneous locomotor activity in rats (sedative properties); type: in vivo; conditions: for Inactivity Duration / Large movements Duration / Large movements Occurrence: 20 min period, mean ± SEM n=12
Protocol: A study was carried out in rats to determine whether the dihydrotetrabenazine isomers of the invention have sedative properties. […] Male Sprague-Dawley rats, (Charles River Laboratories, Saint-Germain/L'Arbresle, France), weighing 200-250 g at the beginning of the study, were used for the studies. […] The rats were allowed to acclimatize to their conditions for at least five days before commencement of the study. The rats received food ([…], France, ref. 811002) and water (tap water in water bottle) ad libitum. Solutions of each test compound in corn oil were freshly prepared on the day of the experiment. Haloperidol was prepared in hydroxyethylcellulose, 0.5% in deionized water. Either the vehicle or the test compounds were administered as a single dose (0.3, 1, 3 and 10 mg/kg, 2 mL/kg i.p.). The reference compound haloperidol (1 mg/kg) was administered i.p. […] The animals were placed in plexiglass cages under a video camera in a room with low light intensity (maximum 50 lux). At forty five minutes and 3 hours after administration, locomotor activity was determined during 20 minute periods using a video image analyzer (Videotrack, View Point, France). […] The number and duration of ambulatory movements and duration of inactivity was measured. At the end of the locomotor activity measurement (45 minutes and 3 hours), palpebral closure and arousal were be scored as follows in the plexiglass cage: […] Image tracking was performed using a video camera placed above the plexiglass cage, recording overall locomotor activity. […] The results were expressed as the means ±SEMs of the 12 individual values. Statistical analyses were carried out using ANOVA (one way) and Dunnett's t-test and with the non parametric test of Kruskal-Wallis followed by a Mann & Whitney U-test for the sedation cotation. A p value of p<0.05 was taken as indicating significance. Group size n=12 Group 1: Reference, haloperidol (1 mg/kg i.p.) Group 2: Vehicle control group (2 ml/kg i.p.) Group 3: tetrabenazine (0.3 mg/kg i.p) Group 4: tetrabenazine (1 mg/kg i.p) Group 5: tetrabenazine (3 mg/kg i.p) Group 6: tetrabenazine (10 mg/kg i.p) Group 7: […]

[2] = target: T1, catechol O-methyl transferase (COMT) (Homo sapiens, UniProt P21964); assay: COMT inhibition; type: biochemical
T1 sequence (P21964 1-271): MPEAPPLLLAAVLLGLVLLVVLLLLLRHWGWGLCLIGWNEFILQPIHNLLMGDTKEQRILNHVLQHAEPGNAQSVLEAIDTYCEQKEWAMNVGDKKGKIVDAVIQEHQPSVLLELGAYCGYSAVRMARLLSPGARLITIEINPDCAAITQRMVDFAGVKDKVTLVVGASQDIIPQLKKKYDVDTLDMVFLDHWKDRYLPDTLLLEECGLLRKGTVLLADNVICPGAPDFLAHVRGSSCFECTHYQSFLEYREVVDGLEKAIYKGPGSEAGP

[3] = target: T2, monoamine oxidase isoform A (Homo sapiens, UniProt P21397); assay: Monoamine oxidase A inhibition; type: biochemical
T2 sequence (P21397 1-527): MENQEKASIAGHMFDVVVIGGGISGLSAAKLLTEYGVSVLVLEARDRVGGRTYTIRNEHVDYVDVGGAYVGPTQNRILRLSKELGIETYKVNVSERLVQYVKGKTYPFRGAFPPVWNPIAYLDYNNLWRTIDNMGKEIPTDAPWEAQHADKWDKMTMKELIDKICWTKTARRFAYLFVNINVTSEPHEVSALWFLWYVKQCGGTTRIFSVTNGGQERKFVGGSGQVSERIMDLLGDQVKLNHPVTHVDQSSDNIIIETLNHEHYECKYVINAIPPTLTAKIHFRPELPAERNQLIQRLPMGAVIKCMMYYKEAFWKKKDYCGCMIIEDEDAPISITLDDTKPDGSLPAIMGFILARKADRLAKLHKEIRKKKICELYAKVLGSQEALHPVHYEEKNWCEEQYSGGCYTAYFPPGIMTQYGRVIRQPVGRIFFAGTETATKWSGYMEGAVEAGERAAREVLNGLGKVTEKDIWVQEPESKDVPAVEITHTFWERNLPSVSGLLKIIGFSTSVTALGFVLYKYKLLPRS

[4] = target: T3, monoamine oxidase isoform B (Homo sapiens, UniProt P27338); assay: Monoamine oxidase B inhibition; type: biochemical
T3 sequence (P27338 1-520): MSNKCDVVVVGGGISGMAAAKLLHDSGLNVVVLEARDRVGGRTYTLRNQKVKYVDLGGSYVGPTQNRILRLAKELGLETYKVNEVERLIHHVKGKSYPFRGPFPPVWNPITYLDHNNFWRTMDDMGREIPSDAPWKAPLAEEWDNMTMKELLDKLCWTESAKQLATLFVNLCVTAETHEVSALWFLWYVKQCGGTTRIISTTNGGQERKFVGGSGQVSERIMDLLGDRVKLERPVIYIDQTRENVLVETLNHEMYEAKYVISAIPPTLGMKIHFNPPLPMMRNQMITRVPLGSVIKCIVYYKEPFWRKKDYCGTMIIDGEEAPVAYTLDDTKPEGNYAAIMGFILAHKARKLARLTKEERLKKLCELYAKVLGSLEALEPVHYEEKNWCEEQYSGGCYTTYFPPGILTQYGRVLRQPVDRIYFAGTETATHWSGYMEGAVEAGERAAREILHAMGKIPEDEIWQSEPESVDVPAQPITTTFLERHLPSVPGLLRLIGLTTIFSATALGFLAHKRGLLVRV

[5] = target: 5-hydroxytryptamine isoform 1d (Homo sapiens, UniProt P28221); assay: 5-hydroxytryptamine 1d inhibition; type: binding
Chain of 5-hydroxytryptamine isoform 1d (P28221 whole entry, canonical isoform): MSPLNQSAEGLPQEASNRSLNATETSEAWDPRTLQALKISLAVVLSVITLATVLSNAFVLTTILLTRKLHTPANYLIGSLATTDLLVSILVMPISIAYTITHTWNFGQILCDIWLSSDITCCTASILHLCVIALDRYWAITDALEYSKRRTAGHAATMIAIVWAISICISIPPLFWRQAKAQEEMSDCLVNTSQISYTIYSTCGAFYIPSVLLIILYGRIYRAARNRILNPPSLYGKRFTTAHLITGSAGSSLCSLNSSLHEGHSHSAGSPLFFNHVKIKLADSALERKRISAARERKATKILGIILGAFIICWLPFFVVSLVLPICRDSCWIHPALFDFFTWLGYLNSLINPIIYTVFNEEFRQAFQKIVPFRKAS

[6] = target: 5-hydroxytryptamine isoform 1b (Homo sapiens, UniProt P28222); assay: 5-hydroxytryptamine 1b inhibition; type: binding
Chain of 5-hydroxytryptamine isoform 1b (P28222 whole entry, canonical isoform): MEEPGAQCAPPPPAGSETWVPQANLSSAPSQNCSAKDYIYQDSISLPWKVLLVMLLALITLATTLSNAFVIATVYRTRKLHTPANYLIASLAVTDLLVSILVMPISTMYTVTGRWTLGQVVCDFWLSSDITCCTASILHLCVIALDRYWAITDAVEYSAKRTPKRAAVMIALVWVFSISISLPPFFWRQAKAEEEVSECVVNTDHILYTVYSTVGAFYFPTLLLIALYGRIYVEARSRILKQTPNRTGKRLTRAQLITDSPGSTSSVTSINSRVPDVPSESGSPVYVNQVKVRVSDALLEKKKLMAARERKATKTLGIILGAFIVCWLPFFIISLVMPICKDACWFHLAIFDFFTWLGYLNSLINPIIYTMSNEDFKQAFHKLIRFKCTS

[7] = tested on: dopamine receptor; assay: Dopamine receptor binding
[8] = target: Dopamine Transporter (DAT) (Homo sapiens, UniProt Q01959); assay: Dopamine Transporter (DAT) binding
Chain of Dopamine Transporter (DAT) (Q01959 whole entry, species assumed): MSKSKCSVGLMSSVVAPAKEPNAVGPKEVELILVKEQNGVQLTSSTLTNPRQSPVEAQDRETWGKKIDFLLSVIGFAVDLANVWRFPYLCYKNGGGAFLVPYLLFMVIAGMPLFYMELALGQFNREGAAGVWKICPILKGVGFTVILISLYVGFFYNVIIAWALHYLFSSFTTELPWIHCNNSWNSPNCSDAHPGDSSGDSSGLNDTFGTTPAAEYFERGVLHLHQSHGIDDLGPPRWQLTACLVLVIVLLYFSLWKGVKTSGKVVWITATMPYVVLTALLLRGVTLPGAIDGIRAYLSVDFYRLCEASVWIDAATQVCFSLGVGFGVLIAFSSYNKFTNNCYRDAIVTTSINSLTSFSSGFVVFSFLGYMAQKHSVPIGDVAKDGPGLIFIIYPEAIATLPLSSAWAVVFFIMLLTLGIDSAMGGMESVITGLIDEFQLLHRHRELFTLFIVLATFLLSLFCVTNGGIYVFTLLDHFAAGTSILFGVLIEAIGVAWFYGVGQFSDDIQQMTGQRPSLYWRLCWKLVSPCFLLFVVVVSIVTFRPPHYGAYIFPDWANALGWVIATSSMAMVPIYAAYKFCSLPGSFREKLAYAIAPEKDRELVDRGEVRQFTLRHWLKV

[9] = tested on: adrenergic receptors; assay: Adrenergic receptor inhibition; type: binding
[10] = target: serotonin transporter protein SERT (Homo sapiens, UniProt P31645); assay: Serotonin transporter SERT inhibition; type: binding
Chain of serotonin transporter protein SERT (P31645 whole entry): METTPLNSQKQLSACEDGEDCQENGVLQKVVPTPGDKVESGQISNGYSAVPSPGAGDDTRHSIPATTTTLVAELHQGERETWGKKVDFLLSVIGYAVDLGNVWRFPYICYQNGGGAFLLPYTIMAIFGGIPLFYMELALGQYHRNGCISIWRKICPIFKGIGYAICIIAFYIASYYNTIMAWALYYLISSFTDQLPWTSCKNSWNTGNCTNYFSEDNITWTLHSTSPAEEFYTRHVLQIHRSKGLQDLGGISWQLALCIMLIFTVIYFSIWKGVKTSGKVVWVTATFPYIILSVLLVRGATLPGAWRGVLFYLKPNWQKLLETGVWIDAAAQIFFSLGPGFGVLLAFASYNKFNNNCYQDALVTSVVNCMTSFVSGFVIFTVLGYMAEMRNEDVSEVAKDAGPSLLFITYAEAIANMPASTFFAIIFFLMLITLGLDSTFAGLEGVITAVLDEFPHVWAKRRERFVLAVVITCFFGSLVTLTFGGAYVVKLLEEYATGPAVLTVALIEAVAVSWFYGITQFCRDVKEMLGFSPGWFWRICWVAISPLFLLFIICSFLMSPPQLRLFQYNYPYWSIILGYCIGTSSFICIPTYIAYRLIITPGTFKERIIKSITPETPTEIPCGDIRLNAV

[11] = rats, 0.3 mg/kg i.p., 45 minutes after administration
[12] = rats, 0.3 mg/kg i.p., 3 hours after administration
[13] = rats, 1 mg/kg i.p., 45 minutes after administration
[14] = rats, 1 mg/kg i.p., 3 hours after administration
[15] = rats, 3 mg/kg i.p., 45 minutes after administration
[16] = rats, 3 mg/kg i.p., 3 hours after administration
[17] = rats, 10 mg/kg i.p., 45 minutes after administration
[18] = rats, 10 mg/kg i.p., 3 hours after administration

## COc1cc2c(cc1OC)C1CC(O)C(CC(C)C)CN1CC2 (single isomer, unassigned; isomer c) [Isomer C]
[1]; locomotor studies carried out on rats
  sedative effect: no sedative effects were observed
[1]; [11]
  Inactivity Duration: 323.7 ± 25.6 s
  Large movements Duration: 79.2 ± 10.0 s
  Large movements Occurrence: 285 ± 34
[1]; [12]
  Inactivity Duration: 519.3 ± 33.7 s
  Large movements Duration: 31.4 ± 6.0 s
  Large movements Occurrence: 113 ± 19
[1]; [13]
  Inactivity Duration: 324.6 ± 38.1 s
  Large movements Duration: 71.8 ± 8.3 s
  Large movements Occurrence: 295 ± 30
[1]; [14]
  Inactivity Duration: 510.2 ± 44.9 s
  Large movements Duration: 30.3 ± 6.5 s
  Large movements Occurrence: 128 ± 24
[1]; [15]
  Inactivity Duration: 322.7 ± 27.8 s
  Large movements Duration: 84.0 ± 9.4 s
  Large movements Occurrence: 308 ± 36
[1]; [16]
  Inactivity Duration: 493.6 ± 38.5 s
  Large movements Duration: 30.2 ± 5.5 s
  Large movements Occurrence: 125 ± 22
[1]; [17]
  Inactivity Duration: 368.7 ± 30.9 s
  Large movements Duration: 66.5 ± 9.9 s
  Large movements Occurrence: 254 ± 32
[1]; [18]
  Inactivity Duration: 465.7 ± 49.0 s
  Large movements Duration: 42.7 ± 8.0 s
  Large movements Occurrence: 164 ± 30
[1]; rats, 0.3, 1, 3 and 10 mg/kg i.p., 45 minutes and 3 hours after administration
  sedative effect: no sedative effects at any time
[1]; rats, 3 hours after administration
  hyperlocomotor effect: slight and non-significant hyperlocomotor effect
[2]
  inhibitory activity against catechol O-methyl transferase (COMT): no inhibitory activity
[3]
  inhibitory activity against monoamine oxidase isoform A: no inhibitory activity
[4]
  inhibitory activity against monoamine oxidase isoform B: no inhibitory activity
[5]
  inhibitory activity against 5-hydroxytryptamine isoform 1d: no inhibitory activity
[6]
  inhibitory activity against 5-hydroxytryptamine isoform 1b: no inhibitory activity
[7]
  dopamine receptor binding activity: only weak or non-existent
[8]
  Dopamine Transporter (DAT) binding activity: lack Dopamine Transporter (DAT) binding activity
[9]
  inhibition of the adrenergic receptors: either weakly active or inactive
[10]
  inhibition of the serotonin transporter protein SERT: potent inhibitors

## O=C(CCCN1CCC(O)(c2ccc(Cl)cc2)CC1)c1ccc(F)cc1 [haloperidol, reference compound]
[1]; [13]
  Inactivity Duration: 637.2 ± 60.1 s
  Large movements Duration: 14.8 ± 8.5 s
  Large movements Occurrence: 58 ± 33
[1]; [14]
  Inactivity Duration: 723.6 ± 50.2 s
  Large movements Duration: 2.2 ± 2.0 s
  Large movements Occurrence: 9 ± 8
